Laboratory results from ChEMBL document CHEMBL1681780, “A rational approach for the design and synthesis of 1-acetyl-3,5-diaryl-4,5-dihydro(1H)pyrazoles as a new class of potential non-purine xanthine oxidase inhibitors” (Bioorg Med Chem, 2011).

Target: Xanthine dehydrogenase/oxidase (Bos taurus, UniProt P80457)
Test: Inhibition of bovine Xanthine oxidase assessed as decrease in uric acid production preincubated […] for 5 mins by spectrophotometry

Xanthine dehydrogenase/oxidase, sequence (P80457 whole entry): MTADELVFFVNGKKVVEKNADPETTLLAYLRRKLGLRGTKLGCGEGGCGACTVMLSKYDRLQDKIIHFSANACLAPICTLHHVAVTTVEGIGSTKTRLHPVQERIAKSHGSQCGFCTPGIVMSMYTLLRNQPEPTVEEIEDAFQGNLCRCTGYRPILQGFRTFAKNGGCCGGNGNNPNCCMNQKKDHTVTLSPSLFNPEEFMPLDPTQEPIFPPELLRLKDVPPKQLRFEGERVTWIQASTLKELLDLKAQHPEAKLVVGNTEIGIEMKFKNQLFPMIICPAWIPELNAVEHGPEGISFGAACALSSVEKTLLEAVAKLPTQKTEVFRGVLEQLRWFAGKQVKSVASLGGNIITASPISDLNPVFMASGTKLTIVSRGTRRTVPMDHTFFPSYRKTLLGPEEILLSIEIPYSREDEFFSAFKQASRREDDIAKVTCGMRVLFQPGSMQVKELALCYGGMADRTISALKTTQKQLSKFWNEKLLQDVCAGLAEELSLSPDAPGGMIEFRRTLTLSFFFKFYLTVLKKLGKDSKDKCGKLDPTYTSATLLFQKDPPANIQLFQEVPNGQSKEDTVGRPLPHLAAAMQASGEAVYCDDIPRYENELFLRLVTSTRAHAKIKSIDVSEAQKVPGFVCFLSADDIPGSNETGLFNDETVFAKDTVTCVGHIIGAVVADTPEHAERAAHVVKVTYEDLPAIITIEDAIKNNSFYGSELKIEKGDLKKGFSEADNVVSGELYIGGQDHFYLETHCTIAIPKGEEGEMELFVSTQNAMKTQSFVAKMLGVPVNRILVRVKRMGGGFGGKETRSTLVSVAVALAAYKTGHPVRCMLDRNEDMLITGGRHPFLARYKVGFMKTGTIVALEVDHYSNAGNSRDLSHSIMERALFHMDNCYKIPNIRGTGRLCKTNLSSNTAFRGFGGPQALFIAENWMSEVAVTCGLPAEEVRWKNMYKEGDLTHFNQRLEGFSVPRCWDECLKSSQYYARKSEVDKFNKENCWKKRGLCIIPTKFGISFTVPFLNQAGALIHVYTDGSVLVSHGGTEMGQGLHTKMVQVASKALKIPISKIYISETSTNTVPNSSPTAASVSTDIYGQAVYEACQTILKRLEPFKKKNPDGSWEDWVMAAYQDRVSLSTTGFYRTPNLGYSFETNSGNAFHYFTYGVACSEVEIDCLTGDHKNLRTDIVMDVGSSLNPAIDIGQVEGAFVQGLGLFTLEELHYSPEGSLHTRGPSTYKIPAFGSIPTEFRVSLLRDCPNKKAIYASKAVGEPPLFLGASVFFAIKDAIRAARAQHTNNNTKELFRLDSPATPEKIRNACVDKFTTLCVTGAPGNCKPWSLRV

Row | IC50 [µM] | SMILES
1 | 76.2 | COc1ccc(C2CC(c3ccccc3)=NN2C(C)=O)cc1 (stereo not drawn)
2 | 66.5 | COc1ccc(C2CC(c3ccc(Br)cc3)=NN2C(C)=O)cc1 (stereo not drawn)
3 | 71.3 | CC(=O)N1N=C(c2ccc(Br)cc2)CC1c1ccccc1 (stereo not drawn)
4 | 74.9 | COc1cc(C2CC(c3ccc(Br)cc3)=NN2C(C)=O)cc(OC)c1OC (stereo not drawn)
5 | 19.2 | CC(=O)N1N=C(c2ccco2)CC1c1ccc(C)cc1 (stereo not drawn)
6 | 17.6 | CC(=O)N1N=C(c2ccco2)CC1c1ccc(Br)cc1 (stereo not drawn)
7 | 70.8 | CC(=O)N1N=C(c2ccccc2)CC1c1ccc2c(c1)OCO2 (stereo not drawn)
8 | 91.4 | CC(=O)N1N=C(c2ccco2)CC1c1ccc2ccccc2c1 (stereo not drawn)
9 | 73.6 | CC(=O)N1N=C(c2ccccc2)CC1c1ccc(N(C)C)cc1 (stereo not drawn)
10 | 55.1 | CC(=O)N1N=C(c2ccccc2)CC1c1cccc(Cl)c1Cl (stereo not drawn)
11 | 81.2 | COc1cc(C2CC(c3ccccc3)=NN2C(C)=O)ccc1O (stereo not drawn)
12 | 86.4 | COc1cc(C2CC(c3ccccc3)=NN2C(C)=O)cc(OC)c1OC (stereo not drawn)
13 | 64.1 | COc1ccc(C2CC(c3ccc(Br)cc3)=NN2C(C)=O)cc1OC (stereo not drawn)
14 | 51.7 | CC(=O)N1N=C(c2ccc(Br)cc2)CC1c1cccc(Cl)c1Cl (stereo not drawn)
15 | 66.3 | CC(=O)N1N=C(c2ccc(Br)cc2)CC1c1ccc2c(c1)OCO2 (stereo not drawn)
16 | 79.1 | CC(=O)N1N=C(c2cccc([N+](=O)[O-])c2)CC1c1ccccc1 (stereo not drawn)
17 | 73.3 | COc1ccc(C2CC(c3cccc([N+](=O)[O-])c3)=NN2C(C)=O)cc1 (stereo not drawn)
18 | 75.2 | COc1ccc(C2CC(c3cccc([N+](=O)[O-])c3)=NN2C(C)=O)cc1OC (stereo not drawn)
19 | 58 | CC(=O)N1N=C(c2cccc([N+](=O)[O-])c2)CC1c1cccc(Cl)c1Cl (stereo not drawn)
20 | 76.1 | CC(=O)N1N=C(c2cccc([N+](=O)[O-])c2)CC1c1ccc2c(c1)OCO2 (stereo not drawn)
21 | 41.3 | CC(=O)N1N=C(c2cccc3ccccc23)CC1c1ccccc1 (stereo not drawn)
22 | 32.2 | CC(=O)N1N=C(c2cccc3ccccc23)CC1c1ccc([N+](=O)[O-])cc1 (stereo not drawn)
23 | 36.4 | CC(=O)N1N=C(c2cccc3ccccc23)CC1c1cccc([N+](=O)[O-])c1 (stereo not drawn)
24 | 43.5 | COc1ccc(C2CC(c3cccc4ccccc34)=NN2C(C)=O)cc1 (stereo not drawn)
25 | 38.7 | CC(=O)N1N=C(c2cccc3ccccc23)CC1c1cccc(Br)c1 (stereo not drawn)
26 | 37.2 | CC(=O)N1N=C(c2cccc3ccccc23)CC1c1ccccc1[N+](=O)[O-] (stereo not drawn)
27 | 44.8 | COc1ccc(OC)c(C2CC(c3cccc4ccccc34)=NN2C(C)=O)c1 (stereo not drawn)

Row | IC50 [µM] | SMILES
28 | 45.6 | COc1ccc(C2CC(c3cccc4ccccc34)=NN2C(C)=O)cc1OC (stereo not drawn)
29 | 49.5 | COc1cc(C2CC(c3cccc4ccccc34)=NN2C(C)=O)cc(OC)c1OC (stereo not drawn)
30 | 46.2 | COc1cc(OC)c(C2CC(c3cccc4ccccc34)=NN2C(C)=O)cc1OC (stereo not drawn)
31 | 45.7 | COc1cc(C2CC(c3cccc4ccccc34)=NN2C(C)=O)ccc1O (stereo not drawn)
32 | 34.2 | CC(=O)N1N=C(c2cccc3ccccc23)CC1c1cccc(Cl)c1Cl (stereo not drawn)
33 | 47 | CC(=O)N1N=C(c2cccc3ccccc23)CC1c1ccc2c(c1)OCO2 (stereo not drawn)
34 | > 100 | CC(=O)N1N=C(c2cccc3ccccc23)CC1c1ccc2ccccc2c1 (stereo not drawn)
35 | 26.4 | CC(=O)N1N=C(c2ccco2)CC1c1ccccc1 (stereo not drawn)
36 | 14.2 | CC(=O)N1N=C(c2ccco2)CC1c1ccccc1[N+](=O)[O-] (stereo not drawn)
37 | 13.1 | CC(=O)N1N=C(c2ccco2)CC1c1cccc([N+](=O)[O-])c1 (stereo not drawn)
38 | 27.2 | CC(=O)N1N=C(c2ccco2)CC1c1cccc(O)c1 (stereo not drawn)
39 | 12.4 | CC(=O)N1N=C(c2ccco2)CC1c1ccc([N+](=O)[O-])cc1 (stereo not drawn)
40 | 15.2 | CC(=O)N1N=C(c2ccco2)CC1c1ccc(Cl)cc1 (stereo not drawn)
41 | 21.3 | COc1ccc(C2CC(c3ccco3)=NN2C(C)=O)cc1 (stereo not drawn)
42 | 23 | CC(=O)N1N=C(c2ccco2)CC1c1ccc(N(C)C)cc1 (stereo not drawn)
43 | 27.3 | COc1ccc(OC)c(C2CC(c3ccco3)=NN2C(C)=O)c1 (stereo not drawn)
44 | 28.7 | COc1cc(C2CC(c3ccco3)=NN2C(C)=O)cc(OC)c1OC (stereo not drawn)
45 | 29.4 | COc1ccc(C2CC(c3ccco3)=NN2C(C)=O)cc1OC (stereo not drawn)
46 | 30.2 | COc1cc(OC)c(C2CC(c3ccco3)=NN2C(C)=O)cc1OC (stereo not drawn)
47 | 26.8 | COc1cc(C2CC(c3ccco3)=NN2C(C)=O)ccc1O (stereo not drawn)
48 | 14.8 | CC(=O)N1N=C(c2ccco2)CC1c1cccc(Cl)c1Cl (stereo not drawn)
49 | 28.1 | CC(=O)N1N=C(c2ccco2)CC1c1ccc2c(c1)OCO2 (stereo not drawn)
50 | 5.3 | CC(=O)N1N=C(c2ccco2)CC1c1ccncc1 (stereo not drawn)
51 | > 100 | c1ccc(C2=NNC(c3ccccc3)C2)cc1 (stereo not drawn)
52 | 61.4 | CC(=O)N1N=C(c2ccccc2)CC1c1ccccc1 (stereo not drawn)
53 | 83.7 | COc1ccc(C2CC(c3ccccc3)=NN2C(C)=O)cc1OC (stereo not drawn)
